# Tested on: E. coli TOP10
# Assay: Suicide expression system (SES) growth inhibition
# Assay type: cell-based
# Conditions: Table 4; variants of SEQ ID NO:10, re-tested in the Bioscreen C
row,Substance,Growth inhibition (%)
1,115 (RRRPLRPPFRPPIRPPFRPPFRPPFRP; Synthetic antimicrobial peptide) [compound 115],79%
2,116 (RRRPIRPPFRPPFRPPVRPPIRPPFRP; Synthetic antimicrobial peptide) [compound 116],69%
3,117 (RRRPIRPPIRPPFRPPFRPPIRPPFRP; Synthetic antimicrobial peptide) [compound 117],77%
4,118 (RRRPFRPPFRPPLRPPFRPPVRPPLRP; Synthetic antimicrobial peptide) [compound 118],73%
5,119 (RRRPIRPPFRPPIRPPFRPPVRPPVRP; Synthetic antimicrobial peptide) [compound 119],69%
6,120 (RRRPLRPPFRPPFRPPFRPPVRPPIRP; Synthetic antimicrobial peptide) [compound 120],68%
7,121 (RRRPIRPPLRPPVRPPIRPPFRPPFRP; Synthetic antimicrobial peptide) [compound 121],65%
8,122 (RRRPFRPPFRPPFRPPVRPPFRPPLRP; Synthetic antimicrobial peptide) [compound 122],64%
9,123 (RRRPFRPPLRPPIRPPIRPPFRPPFRP; Synthetic antimicrobial peptide) [compound 123],65%
10,124 (RRRPFRPPIRPPLRPPVRPPLRPPFRP; Synthetic antimicrobial peptide) [compound 124],73%
11,125 (RRRPIRPPFRPPLRPPFRPPVRPPVRP; Synthetic antimicrobial peptide) [compound 125],73%
12,126 (RRRPIRPPIRPPLRPPFRPPFRPPFRP; Synthetic antimicrobial peptide) [compound 126],77%
13,127 (RRRPIRPPFRPPLRPPFRPPFRPPLRP; Synthetic antimicrobial peptide) [compound 127],67%
14,128 (RRRPFRPPFRPPLRPPFRPPVRPPLRP; Synthetic antimicrobial peptide) [compound 128],69%
15,129 (RRRPFRPPFRPPVRPPFRPPIRPPLRP; Synthetic antimicrobial peptide) [compound 129],69%
16,130 (RRRPFRPPIRPPLRPPFRPPVRPPLRP; Synthetic antimicrobial peptide) [compound 130],78%
17,131 (RRRPIRPPFRPPFRPPIRPPIRPPVRP; Synthetic antimicrobial peptide) [compound 131],75%
18,132 (RRRPFRPPFRPPLRPPVRPPVRPPIRP; Synthetic antimicrobial peptide) [compound 132],72%
19,133 (RRRPFRPPIRPPFRPPVRPPIRPPVRP; Synthetic antimicrobial peptide) [compound 133],62%
20,134 (RRRPFRPPFRPPFRPPVRPPLRPPVRP; Synthetic antimicrobial peptide) [compound 134],68%
21,135 (RRRPIRPPIRPPIRPPIRPPIRPPLRP; Synthetic antimicrobial peptide) [compound 135],38%
22,136 (RRRPFRPPFRPPIRPPFRPPIRPPLRP; Synthetic antimicrobial peptide) [compound 136],77%

row,Substance,Growth inhibition (%)
1,137 (RRRPLRPPFRPPFRPPIRPPFRPPVRP; Synthetic antimicrobial peptide) [compound 137],58%
2,138 (RRRPLRPPFRPPVRPPFRPPFRPPFRP; Synthetic antimicrobial peptide) [compound 138],78%
3,139 (RRRPFRPPFRPPIRPPFRPPIRPPVRP; Synthetic antimicrobial peptide) [compound 139],67%
4,140 (RRRPIRPPIRPPFRPPVRPPVRPPFRP; Synthetic antimicrobial peptide) [compound 140],70%
5,141 (RRRPIRPPIRPPFRPPFRPPLRPPIRP; Synthetic antimicrobial peptide) [compound 141],65%
6,142 (RRRPLRPPIRPPVRPPFRPPVRPPFRP; Synthetic antimicrobial peptide) [compound 142],70%
7,143 (RRRPFRPPVRPPVRPPFRPPLRPPVRP; Synthetic antimicrobial peptide) [compound 143],43%
8,144 (RRRPIRPPLRPPVRPPVRPPFRPPFRP; Synthetic antimicrobial peptide) [compound 144],64%
9,145 (RRRPLRPPVRPPFRPPFRPPLRPPFRP; Synthetic antimicrobial peptide) [compound 145],59%
10,146 (RRRPLRPPFRPPIRPPFRPPFRPPLRP; Synthetic antimicrobial peptide) [compound 146],68%
11,147 (RRRPFRPPFRPPIRPPVRPPVRPPFRP; Synthetic antimicrobial peptide) [compound 147],79%
12,148 (RRRPIRPPFRPPFRPPFRPPFRPPLRP; Synthetic antimicrobial peptide) [compound 148],76%
13,149 (RRRPIRPPIRPPFRPPFRPPVRPPVRP; Synthetic antimicrobial peptide) [compound 149],62%
14,150 (RRRPIRPPIRPPFRPPIRPPFRPPVRP; Synthetic antimicrobial peptide) [compound 150],68%
15,151 (RRRPLRPPVRPPLRPPVRPPFRPPFRP; Synthetic antimicrobial peptide) [compound 151],68%
16,152 (RRRPFRPPFRPPFRPPFRPPVRPPIRP; Synthetic antimicrobial peptide) [compound 152],75%
17,153 (RRRPIRPPFRPPIRPPVRPPIRPPFRP; Synthetic antimicrobial peptide) [compound 153],68%
18,154 (RRRPFRPPFRPPVRPPVRPPFRPPFRP; Synthetic antimicrobial peptide) [compound 154],75%
19,155 (RRRPFRPPFRPPFRPPFRPPFRPPLRP; Synthetic antimicrobial peptide) [compound 155],83%
20,156 (RRRPFRPPLRPPFRPPFRPPIRPPFRP; Synthetic antimicrobial peptide) [compound 156],67%
21,157 (RRRPIRPPFRPPIRPPFRPPVRPPLRP; Synthetic antimicrobial peptide) [compound 157],64%
22,158 (RRRPIRPPFRPPIRPPIRPPIRPPVRP; Synthetic antimicrobial peptide) [compound 158],67%

row,Substance,Growth inhibition (%)
1,159 (RRRPVRPPIRPPIRPPVRPPLRPPVRP; Synthetic antimicrobial peptide) [compound 159],35%
2,160 (RRRPFRPPVRPPFRPPVRPPFRPPFRP; Synthetic antimicrobial peptide) [compound 160],77%
3,161 (RRRPFRPPVRPPIRPPVRPPFRPPFRP; Synthetic antimicrobial peptide) [compound 161],78%
4,162 (RRRPFRPPIRPPFRPPFRPPLRPPLRP; Synthetic antimicrobial peptide) [compound 162],68%
5,163 (RRRPIRPPFRPPFRPPFRPPIRPPIRP; Synthetic antimicrobial peptide) [compound 163],79%
6,164 (RRRPFRPPIRPPLRPPFRPPFRPPFRP; Synthetic antimicrobial peptide) [compound 164],78%
7,165 (RRRPFRPPLRPPFRPPVRPPLRPPVRP; Synthetic antimicrobial peptide) [compound 165],65%
8,166 (RRRPLRPPVRPPFRPPVRPPVRPPLRP; Synthetic antimicrobial peptide) [compound 166],55%
9,167 (RRRPFRPPLRPPFRPPLRPPLRPPVRP; Synthetic antimicrobial peptide) [compound 167],58%
10,168 (RRRPLRPPFRPPIRPPVRPPLRPPFRP; Synthetic antimicrobial peptide) [compound 168],71%
11,169 (RRRPIRPPLRPPVRPPFRPPVRPPFRP; Synthetic antimicrobial peptide) [compound 169],67%
12,170 (RRRPIRPPFRPPFRPPFRPPVRPPFRP; Synthetic antimicrobial peptide) [compound 170],80%
13,171 (RRRPIRPPIRPPIRPPIRPPFRPPFRP; Synthetic antimicrobial peptide) [compound 171],77%
14,172 (RRRPFRPPIRPPFRPPIRPPVRPPFRP; Synthetic antimicrobial peptide) [compound 172],82%
15,173 (RRRPLRPPIRPPLRPPVRPPFRPPFRP; Synthetic antimicrobial peptide) [compound 173],81%
16,174 (RRRPIRPPIRPPFRPPLRPPFRPPFRP; Synthetic antimicrobial peptide) [compound 174],80%
17,175 (RRRPFRPPVRPPFRPPLRPPFRPPFRP; Synthetic antimicrobial peptide) [compound 175],77%
18,176 (RRRPLRPPVRPPIRPPIRPPFRPPFRP; Synthetic antimicrobial peptide) [compound 176],81%
19,177 (RRRPFRPPIRPPFRPPIRPPVRPPIRP; Synthetic antimicrobial peptide) [compound 177],75%
20,178 (RRRPLRPPFRPPVRPPFRPPFRPPFRP; Synthetic antimicrobial peptide) [compound 178],81%
21,179 (RRRPFRPPIRPPIRPPFRPPFRPPFRP; Synthetic antimicrobial peptide) [compound 179],87%
